Results published in patent US20250263774A1, “DISCOVERING NEW XENOBIOTIC SUBSTRATES OF AN UDP-GLYCOSYLTRANSFERASE WITH A HIGH-THROUGHPUT METHOD” (priority 2024, published 2025).

Key:
[1] = system: UGT71G1; settings: previous studies; cited from earlier work
[2] = system: UGT71G1; test: LC-MS/MS analysis of substrates and glycosylated products of the UGT71G1 reaction; assay type: biochemical, Medicago truncatula; settings: for validation as UGT71G1 substrate (glycosylated product detected): substrate 10 μM, UDP-glucose 50 μM, pH 7.4, 37° C., 2 hours 3HF, 4 hours SN-38, 24 hours BPA
Experimental: Liquid chromatography-coupled mass spectrometric analysis of substrates and products. The glycosylation reaction for plant UGT71G1 enzyme extracted from E. coli BL21(DE3) cells containing UGT71G1-pET28a was performed similar to the glucuronidation reaction as those published previously 17 with minor modification. Briefly, the enzyme UGT71G1 (final concentration 0.05-0.5 μg/ml) was mixed with UDP-glucose (50 μM) and substrate (final concentration 10 μM) in 50 mM potassium phosphate buffer (pH 7.4) to reach a final volume of 200 μL. This reaction mixture was incubated at 37° C. and at various time points for each substrate to obtain the highest product-to-substrate ratio: 2 hours for 3HF, 4 hours for SN-38, and 24 hours for BPA; reactions were ended with the addition of 200 μL methanol. The samples were centrifuged at 14000 rpm for 15 mins and supernatant was subjected to UPLC-MS/MS system for analysis after appropriate dilution with 50% MeOH solution.
LC-MS/MS analysis was performed with an EXIONLC™ UHPLC system coupled with API 5500 Q-Trap triple quadrupole mass spectrometer. A BEH C18 column (50×2.1 mm I.D., 1.7 μm, Waters, Milford, MA, USA) was used for liquid chromatography. For mobile phase, mobile phase A (MPA) was 0.1% formic acid in water and mobile phase B (MPB) was 100% acetonitrile; flow rate was 0.45 mL/min with a column temperature of 45° C. An amount of 10 μL sample was injected for each analysis and it was eluted with the following mobile phase profile: 0-0.5 min, 5-10% MPB, 0.5-1.5 min, 10-40% MPB, 1.5-4.0 min, 40-90% MPB, 4.0-4.4 min, 90% MPB, 4.4-4.6 min, 90-5% MPB, 4.6-5.0 min, 5% MPB. Gradient mobile phase for mycophenolic acid and metabolites: 0-1.0 min, 5-20% MPB, 1.0-1.5 min, 20% MPB, 1.5-4.0 min, 20-40% MPB, 4.0-5.0 min, 40-90% MPB, 5.0-5.5 min, 90-5% MPB, 5.5-6.0 min, 5% MPB.
To validate our results from the high-throughput fluorescent assay, a liquid chromatography-coupled tandem mass spectrometric (LC-MS/MS) method was used to monitor the reaction of UGT71G1 with 3-hydroxyflavone, bisphenol A, and SN-38.

[3] = patients that administer irinotecan; SN-38 excreted into the intestines via bile; cited from earlier work
[4] = system: UGT71G1; test: High-throughput fluorescent assay for screening candidates of UGT glycosylation (UDP release, MicroMolar UDP assay kit); assay type: biochemical, Medicago truncatula; settings: 6 μg UGT71G1, UDP-glucose 50 μM, substrate candidate 0.8 to 160 μM, 37° C. 45 minutes, ex 485 nm / em 535 nm
Experimental: High-throughput fluorescent assay for screening candidates of UGT glycosylation. Characterization of UDP formation involved the MicroMolar UDP assay kit (ProFoldin). For each reaction, reagents used from this kit include 3 μL of 10× buffer, 0.3 μL of 100×MUD reagent 1, and 0.3 μL of 100×MUD reagent 2. […] Each sample was then mixed with 30 μL of 1× fluorescence dye from the MICROMOLAR UDP assay kit and fluorescence was measured immediately with a BIOTEK SYNERGY H1 M florescence microplate reader at excitation 485 nm and emission 535 nm.
For a high-through method to robustly detect UGT activities with different glycosyl acceptor, it is necessary to target a change that is independent from the acceptor molecule. UDP-glycosyltransferases take UDP-glucose as a co-substrate; while the glucosyl moiety is transferred to the acceptor molecule, UDP is released as a by-product (FIG. 1A). Thus, UGT activities can be detected by the rise in UDP level in the reaction mixture. In our method to monitor an increase in UDP concentration, the UGT71G1 enzymatic reaction was coupled to the UDP assay kit, in which the release of UDP leads to an increase in fluorescence intensity.

Row | Compound | glycosylation of hydroxyl groups by UGT71G1 [1] | validation as UGT71G1 substrate (glycosylated product detected) [2] | other results
1 | COc1ccc(-c2coc3cc(O)cc(O)c3c2=O)cc1 [Sample 130, Biochanin A] | glycosylates multiple hydroxyl groups | – | –
2 | CC(C)(c1ccc(O)cc1)c1ccc(O)cc1 [Sample 135, Bisphenol A] | – | validated | products formed in the reaction catalyzed by UGT71G1 ([2]; BPA 10 μM, 24 hours, major monoglycosylated, minor diglycosylated): two products
3 | CCc1c2c(nc3ccc(O)cc13)-c1cc3c(c(=O)n1C2)COC(=O)[C@]3(O)CC [Sample 58, 7-Ethyl-10-hydroxycamptothecin] | – | validated | –
4 | O=c1c(-c2ccc(O)cc2)coc2cc(O)cc(O)c12 [Sample 88, Genistein] | glycosylates multiple hydroxyl groups | – | –
5 | CCc1c2c(nc3ccc(OC(=O)N4CCC(N5CCCCC5)CC4)cc13)-c1cc3c(c(=O)n1C2)COC(=O)[C@]3(O)CC [irinotecan] | – | – | patients experiencing diarrhea [3]: 25%
6 | O=c1c(O)c(-c2ccccc2)oc2ccccc12 [Sample 26, 3-Hydroxyflavone] | – | validated | fold increase in fluorescent signal / fluorescence intensity with UGT71G1, comparing to the condition without UGT71G1 [4]: 30 fold
